This assay addresses T1, Serine/threonine-protein kinase Chk1 (Homo sapiens, UniProt O14757).
T1 sequence (O14757 whole entry): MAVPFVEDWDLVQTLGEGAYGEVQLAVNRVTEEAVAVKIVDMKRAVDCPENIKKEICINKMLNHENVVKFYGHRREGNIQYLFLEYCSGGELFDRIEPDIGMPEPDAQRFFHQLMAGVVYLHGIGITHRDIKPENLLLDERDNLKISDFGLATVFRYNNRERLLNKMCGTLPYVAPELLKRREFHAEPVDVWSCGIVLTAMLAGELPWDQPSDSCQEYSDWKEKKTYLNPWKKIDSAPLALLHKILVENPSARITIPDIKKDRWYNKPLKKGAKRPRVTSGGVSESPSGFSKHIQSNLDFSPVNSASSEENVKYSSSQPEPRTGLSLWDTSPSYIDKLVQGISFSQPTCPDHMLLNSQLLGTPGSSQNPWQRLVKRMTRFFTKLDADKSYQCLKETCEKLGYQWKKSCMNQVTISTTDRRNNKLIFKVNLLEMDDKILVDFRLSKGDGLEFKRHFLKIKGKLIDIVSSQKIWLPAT
The assay can be described thus: Inhibition of Chk1 (unknown origin).

A word on the IC50: it is the point on the concentration scale where inhibition reaches its midpoint. Low readings indicate higher potency, high ones lower potency.

`O=C1NC(=O)c2c1c1[nH]cnc1c1[nH]c3ccccc3c21` [GRANULATIMIDE]: 0.25 µM corresponded to half-maximal inhibition (IC50).

The values above are taken from ChEMBL document CHEMBL3352797, “Design of granulatimide and isogranulatimide analogues as potential Chk1 inhibitors: Study of amino-platforms for their synthesis” (Bioorg Med Chem, 2014).
